# According to the supplement of paper PMC4862054:
# Legend:
# Conditions in all cases: incubation time: 72 h
# MDA-MB-436 [1] = test: drug sensitivity score (DSS), CellTiter-Glo (DSS (AUC-based score)); higher = stronger drug effect (viability inhibition or cytotoxicity); extreme values may be limits of the assay
# Summary of the method: (§1)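 Using 20 µl of cell suspension per well, breast cancer cell lines were seeded into 384-well plates pre-loaded with compound at 5 concentrations in 10-fold steps across a compound-specific 10,000-fold range. Incubation lasted 72 h, after which CellTox Green fluorescence at 485/520 nm and then CellTiter-Glo luminescence, following 10 min at room temperature, were recorded. Each plate was normalised to 0.1 % DMSO and a positive kill control before the drug sensitivity score was derived from the area under the fitted dose-response curve.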
# CAL-51 [2] = test: as above
# Summary of the method: as §1
# HCC1143 [3] = test: as above
# Summary of the method: as §1
# MDA-MB-231 [4] = test: as above
# Summary of the method: as §1
# DU-4475 [5] = test: as above
# Summary of the method: as §1
# MFM-223 [6] = test: as above
# Summary of the method: as §1
# SK-BR-3 [7] = test: as above
# Summary of the method: as §1
# BT-549 [8] = test: as above
# Summary of the method: as §1
# CAL-148 [9] = test: as above
# Summary of the method: as §1
# CAL-120 = test: as above
# Summary of the method: as §1
# HCC1599 [10] = test: as above
# Summary of the method: as §1
# HCC1937 [11] = test: as above
# Summary of the method: as §1
# CAL-85-1 [12] = test: as above
# Summary of the method: as §1
# MDA-MB-468 = test: normalised viability (% of control), CellTiter-Blue; higher = more viable cells (about 100 = DMSO control)
# Summary of the method: (§2)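 The reported figure is normalised viability at a single listed concentration of the series. Breast cancer cell lines (20 µl suspension) went onto 384-well plates holding compound in 5 µl medium for 72 h. CellTiter-Blue (2.5 µl, 2 h, 37 °C) was read by fluorescence at 560/590 nm, and each plate was scaled to vehicle at 100 and a positive kill control at 0.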
# MDA-MB-436 [13] = test: as above
# Summary of the method: as §2
# BT-474 = test: as above
# Summary of the method: as §2
# CAL-51 [14] = test: as above
# Summary of the method: as §2
# HCC1143 [15] = test: as above
# Summary of the method: as §2
# Hs578T = test: as above
# Summary of the method: as §2
# MDA-MB-231 [16] = test: as above
# Summary of the method: as §2
# DU-4475 [17] = test: as above
# Summary of the method: as §2
# MFM-223 [18] = test: as above
# Summary of the method: as §2
# SK-BR-3 [19] = test: as above
# Summary of the method: as §2
# BT-549 [20] = test: as above
# Summary of the method: as §2
# CAL-148 [21] = test: as above
# Summary of the method: as §2
# HCC1599 [22] = test: as above
# Summary of the method: as §2
# HCC1937 [23] = test: as above
# Summary of the method: as §2
# MDA-MB-453 = test: as above
# Summary of the method: as §2
# CAL-85-1 [24] = test: as above
# Summary of the method: as §2
SMILES,drug sensitivity score (MDA-MB-436 [1]),drug sensitivity score (CAL-51 [2]),drug sensitivity score (HCC1143 [3]),drug sensitivity score (MDA-MB-231 [4]),drug sensitivity score (DU-4475 [5]),drug sensitivity score (MFM-223 [6]),drug sensitivity score (SK-BR-3 [7]),drug sensitivity score (BT-549 [8]),drug sensitivity score (CAL-148 [9]),drug sensitivity score (CAL-120),drug sensitivity score (HCC1599 [10]),drug sensitivity score (HCC1937 [11]),drug sensitivity score (CAL-85-1 [12]),normalised viability (MDA-MB-468; 1000 nM) [%],normalised viability (MDA-MB-436 [13]; 1000 nM) [%],normalised viability (BT-474; 1000 nM) [%],normalised viability (CAL-51 [14]; 30 nM) [%],normalised viability (HCC1143 [15]; 1000 nM) [%],normalised viability (Hs578T; 1000 nM) [%],normalised viability (MDA-MB-231 [16]; 1000 nM) [%],further results
CN1CCN(CCOc2cc(OC3CCOCC3)c3c(Nc4c(Cl)ccc5c4OCO5)ncnc3c2)CC1 [Saracatinib],0.426,5.08,2.8,8.36,0,0,2.63,3.75,1.84,2.85,2.67,3.31,8.75,87.2,117,85.2,103,70.6,93.8,61.6,normalised viability (DU-4475 [17]; 30 nM): 96.3%; normalised viability (MFM-223 [18]; 1000 nM): 102%; normalised viability (SK-BR-3 [19]; 1000 nM): 90%; normalised viability (BT-549 [20]; 1000 nM): 85.9%; normalised viability (CAL-148 [21]; 30 nM): 78.7%; normalised viability (HCC1599 [22]; 1000 nM): 98%; normalised viability (HCC1937 [23]; 1000 nM): 85%; normalised viability (MDA-MB-453; 30 nM): 101%; normalised viability (CAL-85-1 [24]; 30 nM): 82.6%
CN(C)C[C@@H]1CCn2cc(c3ccccc32)C2=C(C(=O)NC2=O)c2cn(c3ccccc23)CCO1 [Ruboxistaurin],6.47,6.02,3,6.63,3.25,4.27,7.58,6.4,8.61,0,0,3.65,5.13,85.2,49.2,93.1,101,109,99.8,88.2,normalised viability (DU-4475 [17]; 30 nM): 92.3%; normalised viability (MFM-223 [18]; 1000 nM): 80.8%; normalised viability (SK-BR-3 [19]; 1000 nM): 86.6%; normalised viability (BT-549 [20]; 1000 nM): 87.6%; normalised viability (CAL-148 [21]; 30 nM): 116%; normalised viability (HCC1599 [22]; 1000 nM): 91.3%; normalised viability (HCC1937 [23]; 1000 nM): 74%; normalised viability (MDA-MB-453; 30 nM): 99.9%; normalised viability (CAL-85-1 [24]; 30 nM): 105%
C[C@]12CC[C@H](O)CC1=CC[C@@H]1[C@@H]2CC[C@]2(C)C(c3cccnc3)=CC[C@@H]12 [Abiraterone],0,3.91,0,0,0,0,0,0,0,0,0,0,0,–,–,–,–,–,–,–,normalised viability (MDA-MB-468; 500 nM): 106%; normalised viability (MDA-MB-436 [13]; 500 nM): 104%; normalised viability (BT-474; 500 nM): 116%; normalised viability (CAL-51 [14]; 15 nM): 107%; normalised viability (HCC1143 [15]; 500 nM): 80.2%; normalised viability (Hs578T; 500 nM): 116%; normalised viability (MDA-MB-231 [16]; 500 nM): 106%; normalised viability (DU-4475 [17]; 15 nM): 80.8%; normalised viability (MFM-223 [18]; 500 nM): 96.6%; normalised viability (SK-BR-3 [19]; 500 nM): 101%; normalised viability (BT-549 [20]; 500 nM): 111%; normalised viability (CAL-148 [21]; 15 nM): 84.2%; normalised viability (HCC1599 [22]; 500 nM): 385%; normalised viability (HCC1937 [23]; 500 nM): 83%; normalised viability (MDA-MB-453; 15 nM): 110%; normalised viability (CAL-85-1 [24]; 15 nM): 80.5%
CCCCCCCCc1ccc(CCC(N)(CO)CO)cc1 [Fingolimod],3.56,4.51,0,6.21,0,1.45,5.36,3.92,1.1,0,0.954,4.54,5.32,105,81.4,113,111,106,100,86.8,normalised viability (DU-4475 [17]; 30 nM): 119%; normalised viability (MFM-223 [18]; 1000 nM): 106%; normalised viability (SK-BR-3 [19]; 1000 nM): 108%; normalised viability (BT-549 [20]; 1000 nM): 88.7%; normalised viability (CAL-148 [21]; 30 nM): 84%; normalised viability (HCC1599 [22]; 1000 nM): 113%; normalised viability (HCC1937 [23]; 1000 nM): 95.4%; normalised viability (MDA-MB-453; 30 nM): 100%; normalised viability (CAL-85-1 [24]; 30 nM): 87.1%
O=C(O)CCCc1ccc(N(CCCl)CCCl)cc1 [Chlorambucil],0,0,0,0,0,0,0,0,0,0,0,0,0,68.3,91.8,112,112,93.9,102,109,normalised viability (DU-4475 [17]; 30 nM): 92%; normalised viability (MFM-223 [18]; 1000 nM): 106%; normalised viability (SK-BR-3 [19]; 1000 nM): 105%; normalised viability (BT-549 [20]; 1000 nM): 102%; normalised viability (CAL-148 [21]; 30 nM): 104%; normalised viability (HCC1599 [22]; 1000 nM): 97.1%; normalised viability (HCC1937 [23]; 1000 nM): 68.7%; normalised viability (MDA-MB-453; 30 nM): 94.3%; normalised viability (CAL-85-1 [24]; 30 nM): 92.7%
